The source made the active and inactive calls. The calls are words filed in the database; no cut-off is given here.
What was measured:
[1] = Antioxidant activity assessed as AAPH radical scavenging activity by measuring trolox equivalents preincubated for 30 mins followed by AAPH addition and measured every 2 mins for 2 hrs by ORAC assay; format: functional
[2] = Antioxidant activity assessed as reduction of ferric-tripyridyltriazine complex by measuring trolox equivalents at pH 3.5 after 30 mins under dark condition by FRAP assay; format: functional
[3] = target: Amyloid-beta precursor protein (Homo sapiens) (UniProt P05067); experiment: Inhibition of amyloid beta (1 to 42 ) (unknown origin) self aggregation at 10 uM after 24 hrs by thioflavin-T fluorescence method relative to control
Sequence of Amyloid-beta precursor protein (Homo sapiens) (P05067 whole entry): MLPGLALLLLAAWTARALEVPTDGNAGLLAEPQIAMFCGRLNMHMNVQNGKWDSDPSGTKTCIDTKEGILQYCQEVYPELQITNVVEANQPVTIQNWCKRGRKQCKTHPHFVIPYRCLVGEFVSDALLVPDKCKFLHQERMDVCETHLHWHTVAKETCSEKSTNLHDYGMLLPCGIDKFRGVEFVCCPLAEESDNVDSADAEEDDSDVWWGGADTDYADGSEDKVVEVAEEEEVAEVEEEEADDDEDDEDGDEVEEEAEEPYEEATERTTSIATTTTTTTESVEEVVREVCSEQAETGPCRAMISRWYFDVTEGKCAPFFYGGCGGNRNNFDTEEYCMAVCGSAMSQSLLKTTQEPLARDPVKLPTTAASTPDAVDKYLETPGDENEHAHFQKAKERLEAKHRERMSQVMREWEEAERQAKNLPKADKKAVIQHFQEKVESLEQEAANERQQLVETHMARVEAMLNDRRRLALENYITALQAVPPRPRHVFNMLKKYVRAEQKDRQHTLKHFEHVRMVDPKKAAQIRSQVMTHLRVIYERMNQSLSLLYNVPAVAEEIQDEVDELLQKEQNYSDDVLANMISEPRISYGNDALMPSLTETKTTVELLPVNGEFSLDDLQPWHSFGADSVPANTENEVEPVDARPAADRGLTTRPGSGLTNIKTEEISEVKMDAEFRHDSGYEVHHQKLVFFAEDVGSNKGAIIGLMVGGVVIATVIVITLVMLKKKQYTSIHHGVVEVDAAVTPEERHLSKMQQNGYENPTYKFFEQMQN

Acetylcholinesterase = Acetylcholinesterase (Electrophorus electricus, UniProt O42275); experiment: Inhibition of Electrophorus electricus AChE using acetylthiocholine iodide as substrate preincubated for 10 mins followed by substrate addition and measured after 10 mins by Ellman's method
Sequence of Acetylcholinesterase (O42275 whole entry): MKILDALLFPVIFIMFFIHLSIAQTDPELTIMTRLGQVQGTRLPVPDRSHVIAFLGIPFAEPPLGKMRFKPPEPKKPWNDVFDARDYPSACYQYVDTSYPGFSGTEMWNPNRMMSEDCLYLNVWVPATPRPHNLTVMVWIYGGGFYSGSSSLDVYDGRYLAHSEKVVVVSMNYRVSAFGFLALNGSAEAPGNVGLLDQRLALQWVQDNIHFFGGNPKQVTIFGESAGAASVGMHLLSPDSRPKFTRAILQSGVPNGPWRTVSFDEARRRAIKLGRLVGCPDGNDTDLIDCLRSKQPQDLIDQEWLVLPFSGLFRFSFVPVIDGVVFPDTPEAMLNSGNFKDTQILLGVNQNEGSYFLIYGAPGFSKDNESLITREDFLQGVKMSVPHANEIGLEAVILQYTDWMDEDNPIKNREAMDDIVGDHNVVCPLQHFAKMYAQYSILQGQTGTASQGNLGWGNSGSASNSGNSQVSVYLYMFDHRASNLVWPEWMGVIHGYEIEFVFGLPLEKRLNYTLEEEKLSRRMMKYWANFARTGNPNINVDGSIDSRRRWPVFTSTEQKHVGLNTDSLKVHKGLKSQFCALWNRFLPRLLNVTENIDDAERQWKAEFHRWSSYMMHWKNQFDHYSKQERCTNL

SH-SY5Y [4] = experiment: Cytotoxicity against human SH-SY5Y cells assessed as cell viability at 12.5 uM after 24 hrs by MTT assay; format: cell-based
SH-SY5Y [5] = experiment: Cytotoxicity against human SH-SY5Y cells assessed as reduction in cell viability at 25 uM after 24 hrs by MTT assay; format: cell-based
SH-SY5Y [6] = experiment: Cytotoxicity against human SH-SY5Y cells assessed as cell viability at 5 uM after 24 hrs by MTT assay; format: cell-based
SH-SY5Y [7] = experiment: Cytotoxicity against human SH-SY5Y cells assessed as reduction in cell viability after 24 hrs by MTT assay; format: cell-based
SH-SY5Y [8] = experiment: Neuroprotective activity against human SH-SY5Y cells assessed as inhibition of H2O2-induced cell death at 1 uM preincubated for 24 hrs followed by H2O2 treatment and measured after 24 hrs by MTT assay; format: functional, cell-based
SH-SY5Y [9] = experiment: Neuroprotective activity against human SH-SY5Y cells assessed as inhibition of H2O2-induced cell death at 5 uM preincubated for 24 hrs followed by H2O2 treatment and measured after 24 hrs by MTT assay relative to control; format: functional
SH-SY5Y [10] = experiment: Neuroprotective activity against human SH-SY5Y cells assessed as H2O2-induced cell death at 0.01 to 0.1 uM preincubated for 24 hrs followed by H2O2 treatment and measured after 24 hrs by MTT assay; format: functional, cell-based

## COc1cc(CNCCCN2C(=O)c3cccc4cccc(c34)C2=O)cc(OC)c1O
[1]
  Activity: 2 equiv
[2]
  Activity: 1.45 equiv
[3]
  inhibition: 33.2%
Acetylcholinesterase
  IC50: 24.3 µM

## COc1cc(CNCCCN2C(=O)c3cccc4cccc(c34)C2=O)ccc1O
[1]
  Activity: 3.9 equiv
[2]
  Activity: 0.26 equiv
[3]
  inhibition: 30.4%
Acetylcholinesterase
  IC50: 10.1 µM

## COc1cc(/C=N/CCCN2C(=O)c3cccc4cccc(c34)C2=O)ccc1O
[1]
  Activity: 2.1 equiv
[2]
  Activity: 0.07 equiv
Acetylcholinesterase
  IC50: 128 µM

## COc1cc(CNc2ccc(Nc3c4c(nc5ccccc35)CCCC4)cc2)ccc1O
SH-SY5Y [4]
  Activity: Non-Toxic
SH-SY5Y [5]
  Activity: Toxic
SH-SY5Y [6]
  Activity: Non-Toxic
[1]
  Activity: 6.4 equiv
SH-SY5Y [7]
  IC50: 45.1 µM
SH-SY5Y [8]
  Activity: Active
[2]
  Activity: 1.54 equiv
SH-SY5Y [9]
  inhibition at 5 µM: 30%
[3]
  inhibition: 77.1%
Acetylcholinesterase
  IC50: 2.13 µM
SH-SY5Y [10]
  Activity: inactive

Source: ChEMBL document CHEMBL4373635, “Synthesis of novel vanillin derivatives: novel multi-targeted scaffold ligands against Alzheimer's disease” (Medchemcomm, 2019)
